What is called mortality is the percentage killed.

Test [1] deals with Liposcelis bostrychophila. The test can be described thus: Insecticidal activity against Liposcelis bostrychophila (booklice) in compound pre-treated rice grains assessed as effect on progeny production at 1 ppm after 30 days. In kind it is functional, organism-based.
Test [2] concerns Lepinotus reticulatus. The test can be described thus: Insecticidal activity against Lepinotus reticulatus in compound pre-treated maize grains assessed as decrease in progeny production at 1 ppm after 30 days. The format is functional, organism-based.
In test [3] the test system is Liposcelis entomophila. The test can be described thus: Insecticidal activity against Liposcelis entomophila in compound pre-treated rice grains assessed as mortality at 1 ppm after 14 days (reference value: 10.0 +/-4.7%). The format is functional.
Test [4] concerns Liposcelis entomophila. The experiment in a line: Insecticidal activity against Liposcelis entomophila in compound pre-treated wheat grains assessed as decrease in progeny production at 1 ppm after 30 days. In kind it is functional, organism-based.
The subject of test [5] is Liposcelis bostrychophila. The test can be described thus: Insecticidal activity against Liposcelis bostrychophila (booklice) in compound pre-treated maize grains assessed as mortality at 1 ppm after 7 days (reference value: 8.9 +/-2.6%). In kind it is functional.
Test [6] concerns Lepinotus reticulatus. The experiment in a line: Insecticidal activity against Lepinotus reticulatus in compound pre-treated maize grains assessed as mortality at 1 ppm after 14 days (reference value: 61.1 +/-11.9%). The format is functional.
Test [7] deals with Liposcelis bostrychophila. The experiment in a line: Insecticidal activity against Liposcelis bostrychophila (booklice) in compound pre-treated maize grains assessed as mortality at 1 ppm after 14 days (reference value: 13.5 +/-5.3%). The format is functional.
Test [8] concerns Lepinotus reticulatus. The experiment in a line: Insecticidal activity against Lepinotus reticulatus in compound pre-treated rice grains assessed as decrease in progeny production at 1 ppm after 30 days. The format is functional, organism-based.
Test [9] has as its system Liposcelis paeta. The test can be described thus: Insecticidal activity against Liposcelis paeta in compound pre-treated maize grains assessed as mortality at 1 ppm after 14 days (reference value: 14.1 +/-4.1%). In kind it is functional.
Test [10] deals with Liposcelis bostrychophila. The experiment in a line: Insecticidal activity against Liposcelis bostrychophila (booklice) in compound pre-treated rice grains assessed as mortality at 1 ppm after 14 days (reference value: 9.7 +/-2.4%). In kind it is functional.
Test [11] deals with Liposcelis paeta. The test can be described thus: Insecticidal activity against Liposcelis paeta in compound pre-treated rice grains assessed as mortality at 1 ppm after 14 days (reference value: 3.4 +/-1.6%). The format is functional.
The subject of test [12] is Liposcelis bostrychophila. The test can be described thus: Insecticidal activity against Liposcelis bostrychophila (booklice) in compound pre-treated wheat grains assessed as effect on progeny production at 1 ppm after 30 days. In kind it is functional, organism-based.
The subject of test [13] is Liposcelis bostrychophila. The experiment in a line: Insecticidal activity against Liposcelis bostrychophila (booklice) in compound pre-treated maize grains assessed as decrease in progeny production at 1 ppm after 30 days. In kind it is functional, organism-based.
For test [14], the system named is Lepinotus reticulatus. The test can be described thus: Insecticidal activity against Lepinotus reticulatus in compound pre-treated rice grains assessed as mortality at 1 ppm after 7 days (reference value: 6.8 +/-2.4%). In kind it is functional.
For test [15], the system named is Liposcelis entomophila. The experiment in a line: Insecticidal activity against Liposcelis entomophila in compound pre-treated wheat grains assessed as mortality at 1 ppm after 7 days (reference value: 5.6 +/-2.9%). The format is functional.
The test system of test [16] is Liposcelis paeta. The experiment in a line: Insecticidal activity against Liposcelis paeta in compound pre-treated wheat grains assessed as mortality at 1 ppm after 14 days (reference value: 5.6 +/-1.8%). The format is functional.
Test [17] has as its system Liposcelis paeta. The experiment in a line: Insecticidal activity against Liposcelis paeta in compound pre-treated rice grains assessed as mortality at 1 ppm after 7 days (reference value: 3.3 +/-1.7%). In kind it is functional.
Test [18] concerns Liposcelis bostrychophila. The experiment in a line: Insecticidal activity against Liposcelis bostrychophila (booklice) in compound pre-treated wheat grains assessed as mortality at 1 ppm after 14 days (reference value: 6.8 +/-3.3%). In kind it is functional.
Test [19] deals with Liposcelis bostrychophila. The experiment in a line: Insecticidal activity against Liposcelis bostrychophila (booklice) in compound pre-treated wheat grains assessed as mortality at 1 ppm after 7 days (reference value: 3.3 +/-1.7%). In kind it is functional.
The test system of test [20] is Liposcelis entomophila. The experiment in a line: Insecticidal activity against Liposcelis entomophila in compound pre-treated maize grains assessed as mortality at 1 ppm after 14 days (reference value: 14.4 +/-4.1%). In kind it is functional.
In test [21] the test system is Lepinotus reticulatus. The test can be described thus: Insecticidal activity against Lepinotus reticulatus in compound pre-treated rice grains assessed as mortality at 1 ppm after 14 days (reference value: 15.5 +/-4.1%). The format is functional.
In test [22] the test system is Lepinotus reticulatus. The experiment in a line: Insecticidal activity against Lepinotus reticulatus in compound pre-treated wheat grains assessed as mortality at 1 ppm after 14 days (reference value: 21.1 +/-7.4%). In kind it is functional.
Test [23] deals with Liposcelis paeta. The test can be described thus: Insecticidal activity against Liposcelis paeta in compound pre-treated maize grains assessed as mortality at 1 ppm after 7 days (reference value: 13.3 +/-3.3%). In kind it is functional.
The subject of test [24] is Liposcelis paeta. The test can be described thus: Insecticidal activity against Liposcelis paeta in compound pre-treated wheat grains assessed as mortality at 1 ppm after 7 days (reference value: 7.8 +/-3.2%). In kind it is functional.
For test [25], the system named is Lepinotus reticulatus. The experiment in a line: Insecticidal activity against Lepinotus reticulatus in compound pre-treated wheat grains assessed as mortality at 1 ppm after 7 days (reference value: 10.0 +/-5.3%). In kind it is functional.
The test system of test [26] is Liposcelis entomophila. The test can be described thus: Insecticidal activity against Liposcelis entomophila in compound pre-treated maize grains assessed as decrease in progeny production at 1 ppm after 30 days. In kind it is functional, organism-based.
In test [27] the test system is Liposcelis bostrychophila. The test can be described thus: Insecticidal activity against Liposcelis bostrychophila (booklice) in compound pre-treated rice grains assessed as mortality at 1 ppm after 7 days (reference value: 8.9 +/-4.5%). The format is functional.
Test [28] deals with Liposcelis entomophila. The experiment in a line: Insecticidal activity against Liposcelis entomophila in compound pre-treated rice grains assessed as mortality at 1 ppm after 7 days (reference value: 3.3 +/-2.6%). In kind it is functional.
For test [29], the system named is Liposcelis entomophila. The test can be described thus: Insecticidal activity against Liposcelis entomophila in compound pre-treated maize grains assessed as mortality at 1 ppm after 7 days (reference value: 15.6 +/-6.9%). The format is functional.
Test [30] has as its system Lepinotus reticulatus. The experiment in a line: Insecticidal activity against Lepinotus reticulatus in compound pre-treated wheat grains assessed as decrease in progeny production at 1 ppm after 30 days. The format is functional, organism-based.
In test [31] the test system is Liposcelis entomophila. The experiment in a line: Insecticidal activity against Liposcelis entomophila in compound pre-treated wheat grains assessed as mortality at 1 ppm after 14 days (reference value: 13.3 +/-4.7%). In kind it is functional.
Test [32] concerns Liposcelis paeta. The test can be described thus: Insecticidal activity against Liposcelis paeta in compound pre-treated maize grains assessed as effect on progeny production at 1 ppm after 30 days. The format is functional, organism-based.
In test [33] the test system is Lepinotus reticulatus. The test can be described thus: Insecticidal activity against Lepinotus reticulatus in compound pre-treated maize grains assessed as mortality at 1 ppm after 7 days (reference value: 34.4 +/-11.4%). In kind it is functional.
The test system of test [34] is Liposcelis entomophila. The experiment in a line: Insecticidal activity against Liposcelis entomophila in compound pre-treated maize grains assessed as mortality at 8 ppm after 14 days (reference value: 14.4 +/-4.1%). In kind it is functional.
Test [35] relates to Liposcelis bostrychophila. The test can be described thus: Insecticidal activity against Liposcelis bostrychophila (booklice) in compound pre-treated maize grains assessed as mortality at 8 ppm after 14 days (reference value: 13.5 +/-5.3%). In kind it is functional.
The subject of test [36] is Liposcelis entomophila. The experiment in a line: Insecticidal activity against Liposcelis entomophila in compound pre-treated maize grains assessed as mortality at 8 ppm after 7 days (reference value: 15.6 +/-6.9%). The format is functional.
The subject of test [37] is Liposcelis bostrychophila. The experiment in a line: Insecticidal activity against Liposcelis bostrychophila (booklice) in compound pre-treated maize grains assessed as decrease in progeny production at 8 ppm after 30 days. The format is functional, organism-based.
Test [38] concerns Lepinotus reticulatus. The experiment in a line: Insecticidal activity against Lepinotus reticulatus in compound pre-treated maize grains assessed as mortality at 8 ppm after 7 days (reference value: 34.4 +/-11.4%). The format is functional.
The subject of test [39] is Liposcelis paeta. The test can be described thus: Insecticidal activity against Liposcelis paeta in compound pre-treated maize grains assessed as mortality at 8 ppm after 14 days (reference value: 14.1 +/-4.1%). The format is functional.
Test [40] has as its system Liposcelis paeta. The test can be described thus: Insecticidal activity against Liposcelis paeta in compound pre-treated maize grains assessed as mortality at 8 ppm after 7 days (reference value: 13.3 +/-3.3%). The format is functional.
The subject of test [41] is Liposcelis entomophila. The test can be described thus: Insecticidal activity against Liposcelis entomophila in compound pre-treated maize grains assessed as decrease in progeny production at 8 ppm after 30 days. In kind it is functional, organism-based.
Test [42] deals with Liposcelis bostrychophila. The experiment in a line: Insecticidal activity against Liposcelis bostrychophila (booklice) in compound pre-treated maize grains assessed as mortality at 8 ppm after 7 days (reference value: 8.9 +/-2.6%). In kind it is functional.
The subject of test [43] is Lepinotus reticulatus. The experiment in a line: Insecticidal activity against Lepinotus reticulatus in compound pre-treated maize grains assessed as decrease in progeny production at 8 ppm after 30 days. The format is functional, organism-based.
Test [44] concerns Lepinotus reticulatus. The test can be described thus: Insecticidal activity against Lepinotus reticulatus in compound pre-treated maize grains assessed as mortality at 8 ppm after 14 days (reference value: 61.1 +/-11.9%). The format is functional.

The structures appear in SMILES notation. Calls of active or inactive are those of the source. The calls are words filed in the database; no cut-off is given here.

With `CC[C@H]1CCC[C@H](O[C@H]2CC[C@H](N(C)C)[C@@H](C)O2)[C@@H](C)C(=O)C2=C[C@@H]3[C@@H](C=C(C)[C@@H]4C[C@@H](O[C@@H]5O[C@@H](C)[C@H](OC)[C@@H](OC)[C@H]5OC)C[C@@H]34)[C@@H]2CC(=O)O1.CC[C@H]1CCC[C@H](O[C@H]2CC[C@H](N(C)C)[C@@H](C)O2)[C@@H](C)C(=O)C2=C[C@@H]3[C@@H](C=C[C@@H]4C[C@@H](O[C@@H]5O[C@@H](C)[C@H](OC)[C@@H](OC)[C@H]5OC)C[C@@H]34)[C@@H]2CC(=O)O1`, the inhibition result (in test [1]; in [12]; in the test with Liposcelis paeta [32]) was “inactive” in each case. The inhibition result (with Lepinotus reticulatus [2]; in the test with Liposcelis entomophila [4]; in the test on Lepinotus reticulatus [8]; in test [13]; in the test with Liposcelis entomophila [26]; in the test with Lepinotus reticulatus [30]) was “Active” in each case. Further, the mortality at 1 ppm in the test with Liposcelis entomophila [3] came out at 52.3%; in test [5], 71.1%; with Lepinotus reticulatus [6], 100%; in test [7], 76.4%; with Liposcelis paeta [9] it was 37.8%; in test [10] it was 45.7%. In addition, the mortality at 1 ppm was 18.8% in the test with Liposcelis paeta [11]; 80% with Lepinotus reticulatus [14]; 61.2% in the test with Liposcelis entomophila [15]; 55.6% in the test with Liposcelis paeta [16]; 10% with Liposcelis paeta [17]; 75.6% in test [18]. Moreover, the mortality at 1 ppm in test [19] was 74.5%; with Liposcelis entomophila [20], 98.9%; in the test on Lepinotus reticulatus [21] it was 71.1%; in the test with Lepinotus reticulatus [22] it was 96.7%; with Liposcelis paeta [23] it was 16.7%; in the test on Liposcelis paeta [24], 46.7%. Also, the mortality at 1 ppm was 94.4% in the test with Lepinotus reticulatus [25]; 48.9% in test [27]; 52.2% with Liposcelis entomophila [28]; 90% in the test on Liposcelis entomophila [29]; 84.4% in the test with Liposcelis entomophila [31]; 94.5% with Lepinotus reticulatus [33].
Turning to `CCN(CC)c1nc(C)cc(OP(=S)(OC)OC)n1` [PIRIMIPHOS METHYL], the mortality at 8 ppm was determined as 100% in the test on Liposcelis entomophila [34]; 100% in test [35]; 100% with Liposcelis entomophila [36]; 100% in the test on Lepinotus reticulatus [38]; 100% with Liposcelis paeta [39]; 97.8% with Liposcelis paeta [40]. Also, the mortality at 8 ppm (in [42]; in the test with Lepinotus reticulatus [44]) was 100% in each case. For the same compound, the inhibition entry (in [37]; in the test with Liposcelis entomophila [41]; with Lepinotus reticulatus [43]) was “Active” each time.

Source of the values: ChEMBL document CHEMBL3044811, “Efficacy of grain protectants against four psocid species on maize, rice and wheat” (2009).
